Experimental data taken from patent US8143290B2, “Chemical compounds 572” (AstraZeneca AB, priority 2006, dated 2012).

Target: T1, recombinant human GR (Homo sapiens, UniProt P04150)
T1 construct: purchased Panvera/Invitrogen P2812 (kit P2893)
T1 sequence (P04150 1-777): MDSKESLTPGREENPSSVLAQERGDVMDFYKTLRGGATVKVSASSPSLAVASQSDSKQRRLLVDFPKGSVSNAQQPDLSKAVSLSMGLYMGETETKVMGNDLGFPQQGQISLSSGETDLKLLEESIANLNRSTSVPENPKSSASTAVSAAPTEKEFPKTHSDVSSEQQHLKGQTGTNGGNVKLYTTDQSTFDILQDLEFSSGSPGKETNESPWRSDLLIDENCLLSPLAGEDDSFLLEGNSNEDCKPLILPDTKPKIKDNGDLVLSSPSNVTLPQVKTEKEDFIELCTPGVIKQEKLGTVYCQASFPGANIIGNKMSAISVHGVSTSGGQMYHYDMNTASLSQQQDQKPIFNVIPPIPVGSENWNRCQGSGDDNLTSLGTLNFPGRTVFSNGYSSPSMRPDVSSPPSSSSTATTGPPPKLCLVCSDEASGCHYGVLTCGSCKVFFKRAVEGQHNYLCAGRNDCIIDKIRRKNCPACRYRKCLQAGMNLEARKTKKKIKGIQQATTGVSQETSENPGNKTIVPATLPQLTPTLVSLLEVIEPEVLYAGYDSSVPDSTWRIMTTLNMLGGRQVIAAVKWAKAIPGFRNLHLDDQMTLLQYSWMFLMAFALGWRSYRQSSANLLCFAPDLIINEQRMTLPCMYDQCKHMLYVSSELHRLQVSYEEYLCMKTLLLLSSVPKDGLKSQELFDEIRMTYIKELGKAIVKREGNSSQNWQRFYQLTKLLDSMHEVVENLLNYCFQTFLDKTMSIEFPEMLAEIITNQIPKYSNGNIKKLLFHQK
Test: Human Glucocorticoid Receptor (GR) Assay, fluorescence polarization
Assay type: binding
Conditions: GS Red tracer, incubated 2 h at r.t., XLfit model 205, read-out: GRhuFL_FP_v2 Mean IC50
Method in brief: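 Fluorescence polarization kit assay: recombinant GR and GS Red fluorescent ligand with Stabilizing Peptide and DTT in potassium phosphate/sodium molybdate/EDTA screening buffer. Plates incubated 2 h in the dark at r.t.; DMSO served as 0% and dexamethasone as 100% control.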

Row | IC50 | Structure (SMILES)
1 | 5.3 nM | C[C@H](NC(=O)C(C)(C)CO)[C@H](Oc1ccc2c(cnn2-c2ccc(F)cc2)c1)c1ccc(F)c(F)c1 [Example 251, N-[(1R,2S)-1-(3,4-difluorophenyl)-1-[1-(4-fluorophenyl)indazol-5-yl]oxy-propan-2-yl]-3-hydroxy-2,2-dimethyl-propanamide]
2 | 4.7 nM | Cc1ccc([C@@H](Oc2ccc3c(cnn3-c3ccc(F)cc3)c2)[C@H](C)NC(=O)C(C)(C)CO)cc1F [Example 252, N-[(1R,2S)-1-(3-fluoro-4-methyl-phenyl)-1-[1-(4-fluorophenyl)indazol-5-yl]oxy-propan-2-yl]-3-hydroxy-2,2-dimethyl-propanamide]
3 | 7.5 nM | C[C@H](NC(=O)C(C)(C)CO)[C@H](Oc1ccc2c(cnn2-c2ccc(F)cc2)c1)c1cccc(F)c1 [Example 253, N-[(1R,2S)-1-(3-fluorophenyl)-1-[1-(4-fluorophenyl)indazol-5-yl]oxy-propan-2-yl]-3-hydroxy-2,2-dimethyl-propanamide]
4 | 8.5 nM | Cc1ccc(C)c([C@@H](Oc2ccc3c(cnn3-c3ccc(F)cc3)c2)[C@H](C)NC(=O)C(C)(C)CO)c1 [Example 254, N-[(1R,2S)-1-(2,5-dimethylphenyl)-1-[1-(4-fluorophenyl)indazol-5-yl]oxy-propan-2-yl]-3-hydroxy-2,2-dimethyl-propanamide]
5 | 5.1 nM | C[C@H](NC(=O)C(C)(C)CO)[C@H](Oc1ccc2c(cnn2-c2ccc(F)cc2)c1)c1cccc(Cl)c1 [Example 255, N-[(1R,2S)-1-(3-chlorophenyl)-1-[1-(4-fluorophenyl)indazol-5-yl]oxy-propan-2-yl]-3-hydroxy-2,2-dimethyl-propanamide]
6 | 5.3 nM | Cc1cc(F)ccc1[C@@H](Oc1ccc2c(cnn2-c2ccc(F)cc2)c1)[C@H](C)NC(=O)C(C)(C)CO [Example 256, N-[(1R,2S)-1-(4-fluoro-2-methyl-phenyl)-1-[1-(4-fluorophenyl)indazol-5-yl]oxy-propan-2-yl]-3-hydroxy-2,2-dimethyl-propanamide]
7 | 13 nM | COCC(=O)N[C@@H](C)[C@H](Oc1ccc2c(cnn2-c2ccc(F)cc2)c1)c1ccc(C)c(C)c1 [Example 257, N-[(1R,2S)-1-(3,4-dimethylphenyl)-1-[1-(4-fluorophenyl)indazol-5-yl]oxy-propan-2-yl]-2-methoxy-acetamide]
8 | 4.4 nM | COCC(=O)N[C@@H](C)[C@H](Oc1ccc2c(cnn2-c2ccc(F)cc2)c1)c1ccc(F)c(F)c1 [Example 258, N-[(1R,2S)-1-(3,4-difluorophenyl)-1-[1-(4-fluorophenyl)indazol-5-yl]oxy-propan-2-yl]-2-methoxy-acetamide]
9 | 5.3 nM | COCC(=O)N[C@@H](C)[C@H](Oc1ccc2c(cnn2-c2ccc(F)cc2)c1)c1ccc(C)c(F)c1 [Example 259, N-[(1R,2S)-1-(3-fluoro-4-methyl-phenyl)-1-[1-(4-fluorophenyl)indazol-5-yl]oxy-propan-2-yl]-2-methoxy-acetamide]
10 | 14 nM | COCC(=O)N[C@@H](C)[C@H](Oc1ccc2c(cnn2-c2ccc(F)cc2)c1)c1cc(C)ccc1C [Example 260, N-[(1R,2S)-1-(2,5-dimethylphenyl)-1-[1-(4-fluorophenyl)indazol-5-yl]oxy-propan-2-yl]-2-methoxy-acetamide]
11 | 5.7 nM | COCC(=O)N[C@@H](C)[C@H](Oc1ccc2c(cnn2-c2ccc(F)cc2)c1)c1ccc(C)cc1C [Example 261, N-[(1R,2S)-1-(2,4-dimethylphenyl)-1-[1-(4-fluorophenyl)indazol-5-yl]oxy-propan-2-yl]-2-methoxy-acetamide]
12 | 4.5 nM | COCC(=O)N[C@@H](C)[C@H](Oc1ccc2c(cnn2-c2ccc(F)cc2)c1)c1ccc(OC)c(F)c1 [Example 262, N-[(1R,2S)-1-(3-fluoro-4-methoxy-phenyl)-1-[1-(4-fluorophenyl)indazol-5-yl]oxy-propan-2-yl]-2-methoxy-acetamide]
13 | 4.2 nM | COCC(=O)N[C@@H](C)[C@H](Oc1ccc2c(cnn2-c2ccc(F)cc2)c1)c1cccc(F)c1 [Example 263, N-[(1R,2S)-1-(3-fluorophenyl)-1-[1-(4-fluorophenyl)indazol-5-yl]oxy-propan-2-yl]-2-methoxy-acetamide]
14 | 6.5 nM | COc1ccc([C@@H](Oc2ccc3c(cnn3-c3ccc(F)cc3)c2)[C@H](C)NC(=O)C(F)(F)F)cc1F [Example 264, 2,2,2-trifluoro-N-[(1R,2S)-1-(3-fluoro-4-methoxy-phenyl)-1-[1-(4-fluorophenyl)indazol-5-yl]oxy-propan-2-yl]acetamide]
15 | 25 nM | COc1ccc([C@@H](Oc2ccc3c(cnn3-c3ccc(F)cc3)c2)[C@H](C)NC(=O)C2(C)CC2)c(C)c1 [Example 265, N-[(1R,2S)-1-[1-(4-fluorophenyl)indazol-5-yl]oxy-1-(4-methoxy-2-methyl-phenyl)propan-2-yl]-1-methyl-cyclopropane-1-carboxamide]
16 | 2.9 nM | Cc1ccc(C)c([C@@H](Oc2ccc3c(cnn3-c3ccc(F)cc3)c2)[C@H](C)NC(=O)C(C)(F)F)c1 [Example 266, N-[(1R,2S)-1-(2,5-dimethylphenyl)-1-[1-(4-fluorophenyl)indazol-5-yl]oxy-propan-2-yl]-2,2-difluoro-propanamide]
17 | 12 nM | COc1cccc([C@@H](Oc2ccc3c(cnn3-c3ccc(F)cc3)c2)[C@H](C)NC(=O)CNC(C)=O)c1 [Example 269, N-[[(1R,2S)-1-[1-(4-fluorophenyl)indazol-5-yl]oxy-1-(3-methoxyphenyl)propan-2-yl]carbamoylmethyl]acetamide]
18 | 8.1 nM | COc1cccc([C@@H](Oc2ccc3c(cnn3-c3ccc(F)cc3)c2)[C@H](C)NC(=O)CNC(N)=O)c1 [Example 270, 2-(carbamoylamino)-N-[(1R,2S)-1-[1-(4-fluorophenyl)indazol-5-yl]oxy-1-(3-methoxyphenyl)propan-2-yl]acetamide]
19 | 21 nM | COc1cccc([C@@H](Oc2ccc3c(cnn3-c3ccc(F)cc3)c2)[C@H](C)N2C(=O)CNC2=O)c1 [Example 271, 3-[(1R,2S)-1-[1-(4-fluorophenyl)indazol-5-yl]oxy-1-(3-methoxyphenyl)propan-2-yl]imidazolidine-2,4-dione]
20 | 4.3 nM | COc1cccc([C@@H](Oc2ccc3c(cnn3-c3ccc(F)cc3)c2)[C@H](C)NC(=O)c2ccc(Br)s2)c1 [Example 272, 5-bromo-N-[(1R,2S)-1-[1-(4-fluorophenyl)indazol-5-yl]oxy-1-(3-methoxyphenyl)propan-2-yl]thiophene-2-carboxamide]
21 | 7.9 nM | COc1cccc([C@@H](Oc2ccc3c(cnn3-c3ccc(F)cc3)c2)[C@H](C)NC(=O)c2ccc(S(C)(=O)=O)s2)c1 [Example 273, N-[(1R,2S)-1-[1-(4-fluorophenyl)indazol-5-yl]oxy-1-(3-methoxyphenyl)propan-2-yl]-5-methylsulfonyl-thiophene-2-carboxamide]
22 | 3.9 nM | COc1cccc([C@@H](Oc2ccc3c(cnn3-c3ccc(F)cc3)c2)[C@H](C)NC(=O)c2ncc(C)s2)c1 [Example 274, N-[(1R,2S)-1-[1-(4-fluorophenyl)indazol-5-yl]oxy-1-(3-methoxyphenyl)propan-2-yl]-5-methyl-1,3-thiazole-2-carboxamide]
23 | 4 nM | COc1cccc([C@@H](Oc2ccc3c(cnn3-c3ccc(F)cc3)c2)[C@H](C)NC(=O)c2cc(C#N)cs2)c1 [Example 275, 4-cyano-N-[(1R,2S)-1-[1-(4-fluorophenyl)indazol-5-yl]oxy-1-(3-methoxyphenyl)propan-2-yl]thiophene-2-carboxamide]
24 | 12 nM | COc1cccc([C@@H](Oc2ccc3c(cnn3-c3ccc(F)cc3)c2)[C@H](C)NC(=O)c2ccc(Br)o2)c1 [Example 276, 5-bromo-N-[(1R,2S)-1-[1-(4-fluorophenyl)indazol-5-yl]oxy-1-(3-methoxyphenyl)propan-2-yl]furan-2-carboxamide]
25 | 4.7 nM | COc1cccc([C@@H](Oc2ccc3c(cnn3-c3ccc(F)cc3)c2)[C@H](C)NC(=O)c2nnc(C)o2)c1 [Example 277, N-[(1R,2S)-1-[1-(4-fluorophenyl)indazol-5-yl]oxy-1-(3-methoxyphenyl)propan-2-yl]-5-methyl-1,3,4-oxadiazole-2-carboxamide]
26 | 3.8 nM | COc1cccc([C@@H](Oc2ccc3c(cnn3-c3ccc(F)cc3)c2)[C@H](C)NC(=O)c2cc[nH]n2)c1 [Example 279, N-[(1R,2S)-1-[1-(4-fluorophenyl)indazol-5-yl]oxy-1-(3-methoxyphenyl)propan-2-yl]-1H-pyrazole-3-carboxamide]
27 | 3.6 nM | COc1cccc([C@@H](Oc2ccc3c(cnn3-c3ccc(F)cc3)c2)[C@H](C)NC(=O)c2ccon2)c1 [Example 280, N-[(1R,2S)-1-[1-(4-fluorophenyl)indazol-5-yl]oxy-1-(3-methoxyphenyl)propan-2-yl]1,2-oxazole-3-carboxamide]
